This assay concerns L1210 leukemia ip in BDF1 mice, survival T/C. The experiment in a line: NCI In Vivo Anticancer Drug Screen. Data for tumor model L1210 Leukemia (intraperitoneal) in B6D2F1 (BDF1) mice. Conditions: endpoint: mean survival time, higher = longer survival. Summed up: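 Tumor was transplanted into mice, which were then dosed with test compound or vehicle alone. Survival was recorded for each group, and the treated figure was expressed relative to the control figure.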

Where [1] appears, read: dose: 100.0 mg/kg/injection, schedule: Q01DX009 (ip), vehicle: saline with Tween-80.
Where [2] appears, read: dose: 100.0 mg/kg/injection, schedule: Q04DX003 (ip), vehicle: saline with Tween-80.
Where [3] appears, read: dose: 200.0 mg/kg/injection, schedule: Q04DX003 (ip), vehicle: saline with Tween-80.
Setting [4] is: dose: 400.0 mg/kg/injection, schedule: Q04DX003 (ip), vehicle: saline with Tween-80.
Setting [5] is: dose: 100.0 mg/kg/injection, schedule: Q01DX001 (ip), vehicle: carboxymethylcellulose (CMC).
The mark [6] stands for this setting: dose: 200.0 mg/kg/injection, schedule: Q01DX001 (ip), vehicle: carboxymethylcellulose (CMC).
The mark [7] stands for this setting: dose: 50.0 mg/kg/injection, schedule: Q01DX001 (ip), vehicle: saline.
The mark [8] stands for this setting: dose: 100.0 mg/kg/injection, schedule: Q01DX001 (ip), vehicle: saline.
The mark [9] stands for this setting: dose: 200.0 mg/kg/injection, schedule: Q01DX001 (ip), vehicle: saline.
Where [10] appears, read: dose: 400.0 mg/kg/injection, schedule: Q01DX001 (ip), vehicle: saline.

Several values for one entry are separate records, joined by “and”; a condition that tells them apart may be missing. Identical values can stand only once. Inconclusive results and toxic doses are left out.

Regarding `CC(C)(CNCc1ccco1)[N+](=O)[O-]`, the T/C reads like this: (dose: 50.0 mg/kg/injection, schedule: Q01DX009 (ip), vehicle: other) 103 % of control; (dose: 100.0 mg/kg/injection, schedule: Q01DX009 (ip), vehicle: other) 95 % of control; (dose: 200.0 mg/kg/injection, schedule: Q01DX009 (ip), vehicle: other) 106 % of control.

Consider `CC12CCCC(O)(CC(=O)C1)C2` (stereo not given), for which the T/C (dose: 100.0 mg/kg/injection, schedule: Q01DX009 (ip), vehicle: saline) was 93 % of control; the T/C (dose: 100.0 mg/kg/injection, schedule: Q04DX003 (ip), vehicle: acetone) is 95 % of control; the T/C (dose: 200.0 mg/kg/injection, schedule: Q01DX009 (ip), vehicle: saline) is 95 % of control; the T/C (dose: 200.0 mg/kg/injection, schedule: Q04DX003 (ip), vehicle: acetone) was 101 % of control; the T/C (dose: 400.0 mg/kg/injection, schedule: Q01DX009 (ip), vehicle: saline) was 91 % of control; the T/C (dose: 400.0 mg/kg/injection, schedule: Q04DX003 (ip), vehicle: acetone) is 98 % of control.

Take `C=CCNC(=O)Oc1cccc(NC(=O)/C=C/C)c1`: the T/C is 88 % of control under setting [1], 97 % of control under setting [2], 95 % of control under setting [3] and 92 % of control under setting [4].

Take `CCOC(=O)c1ccc(SC(Cl)(Cl)Cl)cc1`: the T/C is 98 % of control (dose: 100.0 mg/kg/injection, schedule: Q01DX001 (ip), vehicle: alcohol); 107 % of control (dose: 200.0 mg/kg/injection, schedule: Q01DX001 (ip), vehicle: alcohol); 120 % of control (dose: 400.0 mg/kg/injection, schedule: Q01DX001 (ip), vehicle: alcohol).

For `CCCC(Sc1ncnc2nc[nH]c12)C(=O)O` (stereo not given), the T/C is, setting by setting: under setting [5], 95 % of control; under setting [6], 98 % of control; (dose: 400.0 mg/kg/injection, schedule: Q01DX001 (ip), vehicle: carboxymethylcellulose (CMC)) 103 % of control.

For the compound `CNc1ccc(C(=O)c2ccccc2C(=O)O)cc1[N+](=O)[O-]`, the T/C by setting is: under setting [1], 92 % of control; under setting [2], 97 % of control; (dose: 200.0 mg/kg/injection, schedule: Q01DX009 (ip), vehicle: saline with Tween-80) 95 % of control; under setting [3], 89 % of control; (dose: 400.0 mg/kg/injection, schedule: Q01DX009 (ip), vehicle: saline with Tween-80) 93 % of control; under setting [4], 94 % of control.

`S=C(SP(SC(=S)N1CCCCC1)SC(=S)N1CCCCC1)N1CCCCC1`: the T/C reads like this: (dose: 100.0 mg/kg/injection, schedule: Q04DX002 (ip), vehicle: saline) 95 % of control; (dose: 200.0 mg/kg/injection, schedule: Q04DX002 (ip), vehicle: saline) 89 % of control; (dose: 400.0 mg/kg/injection, schedule: Q04DX002 (ip), vehicle: saline) 95 % of control.

In the case of `C[CH2][Ge]([CH2]C)[CH2]C.C[CH2][Ge]([CH2]C)[CH2]C.C[CH2][Ge][CH2]C`, the T/C runs as follows: (dose: 100.0 mg/kg/injection, schedule: Q04DX002 (ip), vehicle: saline with Tween-80) 103 % of control; (dose: 200.0 mg/kg/injection, schedule: Q04DX002 (ip), vehicle: saline with Tween-80) 95 % of control; (dose: 400.0 mg/kg/injection, schedule: Q04DX002 (ip), vehicle: saline with Tween-80) 319 % of control.

Turning to `CCOC(CN1CCOCC1)c1ccccc1` (stereo not given), the T/C runs as follows: (dose: 50.0 mg/kg/injection, schedule: Q01DX001 (ip), vehicle: carboxymethylcellulose (CMC)) 100 % of control; (dose: 50.0 mg/kg/injection, schedule: Q01DX009 (ip), vehicle: carboxymethylcellulose (CMC)) 93 % of control and 92 % of control; (dose: 50.0 mg/kg/injection, schedule: Q04DX003 (ip), vehicle: carboxymethylcellulose (CMC)) 102 % of control; under setting [5], 99 % of control; (dose: 100.0 mg/kg/injection, schedule: Q01DX009 (ip), vehicle: carboxymethylcellulose (CMC)) 109 % of control and 91 % of control; (dose: 100.0 mg/kg/injection, schedule: Q04DX002 (ip), vehicle: carboxymethylcellulose (CMC)) 103 % of control and 105 % of control. Further, the T/C reads like this: (dose: 100.0 mg/kg/injection, schedule: Q04DX003 (ip), vehicle: carboxymethylcellulose (CMC)) 107 % of control; under setting [6], 100 % of control; (dose: 200.0 mg/kg/injection, schedule: Q01DX009 (ip), vehicle: carboxymethylcellulose (CMC)) 106 % of control and 88 % of control; (dose: 200.0 mg/kg/injection, schedule: Q04DX002 (ip), vehicle: carboxymethylcellulose (CMC)) 106 % of control and 113 % of control; (dose: 200.0 mg/kg/injection, schedule: Q04DX003 (ip), vehicle: carboxymethylcellulose (CMC)) 104 % of control.

For `CC(=O)Nc1ccc2c(=O)cc[nH]c2n1`, the T/C was 89 % of control under setting [7], 93 % of control under setting [8], 106 % of control under setting [9] and 95 % of control under setting [10].

In the case of `CCOc1ccc(N=O)c(O)c1`, the T/C is 101 % of control (dose: 75.0 mg/kg/injection, schedule: Q01DX001 (ip), vehicle: carboxymethylcellulose (CMC)) and 90 % of control (dose: 150.0 mg/kg/injection, schedule: Q01DX001 (ip), vehicle: carboxymethylcellulose (CMC)).

Take `CN=C(NC)NCc1ccccc1`: the T/C under setting [7] is 95 % of control and the T/C under setting [8] is 97 % of control.

Consider `CC1=C(C)Cc2c(OC(=O)c3ccccc3)ccc(OC(=O)c3ccccc3)c2C1`, for which the T/C was 101 % of control (dose: 3.12 mg/kg/injection, schedule: Q01DX009 (ip), vehicle: water); 101 % of control (dose: 6.25 mg/kg/injection, schedule: Q01DX009 (ip), vehicle: water); 96 % of control (dose: 12.5 mg/kg/injection, schedule: Q01DX009 (ip), vehicle: water); 98 % of control and 119 % of control (dose: 25.0 mg/kg/injection, schedule: Q01DX009 (ip), vehicle: water); 101 % of control (dose: 50.0 mg/kg/injection, schedule: Q01DX009 (ip), vehicle: water); 90 % of control (dose: 100.0 mg/kg/injection, schedule: Q01DX009 (ip), vehicle: water). Moreover, the T/C reads like this: (dose: 200.0 mg/kg/injection, schedule: Q01DX009 (ip), vehicle: water) 90 % of control; (dose: 400.0 mg/kg/injection, schedule: Q01DX009 (ip), vehicle: water) 97 % of control.

For the compound `c1ccc(-c2nc3ccccc3s2)nc1`, the T/C reads like this: (dose: 100.0 mg/kg/injection, schedule: Q04DX003 (ip), vehicle: Klucel (hydroxypropylcellulose) (HPC)) 109 % of control; (dose: 200.0 mg/kg/injection, schedule: Q04DX003 (ip), vehicle: Klucel (hydroxypropylcellulose) (HPC)) 98 % of control; (dose: 400.0 mg/kg/injection, schedule: Q04DX003 (ip), vehicle: Klucel (hydroxypropylcellulose) (HPC)) 88 % of control.

Regarding `CCOC(=O)c1ccc(NC(=O)Oc2ccc3c(C)cc(=O)oc3c2)cc1`, the T/C by setting is: (dose: 100.0 mg/kg/injection, schedule: Q01DX009 (ip), vehicle: Klucel (hydroxypropylcellulose) (HPC)) 101 % of control; (dose: 200.0 mg/kg/injection, schedule: Q01DX009 (ip), vehicle: Klucel (hydroxypropylcellulose) (HPC)) 100 % of control; (dose: 400.0 mg/kg/injection, schedule: Q01DX009 (ip), vehicle: Klucel (hydroxypropylcellulose) (HPC)) 89 % of control.

As for `CC1=NN(c2ccc(S(=O)(=O)O)cc2Cl)C(=O)C1`, the T/C was 101 % of control under setting [2], 98 % of control under setting [3] and 90 % of control under setting [4].

In the case of `C/C(=N/N=C(N)N)c1ccc(F)cc1`, the T/C runs as follows: (dose: 15.0 mg/kg/injection, schedule: Q01DX Z (ip), vehicle: carboxymethylcellulose (CMC)) 95 % of control; (dose: 15.0 mg/kg/injection, schedule: Q01DX Z (oral), vehicle: carboxymethylcellulose (CMC)) 113 % of control; (dose: 30.0 mg/kg/injection, schedule: Q01DX Z (ip), vehicle: carboxymethylcellulose (CMC)) 100 % of control; (dose: 30.0 mg/kg/injection, schedule: Q01DX Z (oral), vehicle: carboxymethylcellulose (CMC)) 98 % of control; (dose: 60.0 mg/kg/injection, schedule: Q01DX Z (oral), vehicle: carboxymethylcellulose (CMC)) 103 % of control.

With `Cc1ccc(NC(=O)OCCN(CCOC(=O)Nc2ccc(C)cc2)c2cccc(C)c2)cc1`, the T/C is, setting by setting: under setting [8], 94 % of control; under setting [9], 90 % of control; under setting [10], 94 % of control.

The values are drawn from PubChem BioAssay AID248 (DTP/NCI, 2004).
